Each structure is given as a SMILES string.

As usually defined, the IC50 is the concentration at which inhibition is half-maximal. A higher IC50 goes with weaker potency in that assay.

Histone deacetylase 2, sequence (Q92769 whole entry): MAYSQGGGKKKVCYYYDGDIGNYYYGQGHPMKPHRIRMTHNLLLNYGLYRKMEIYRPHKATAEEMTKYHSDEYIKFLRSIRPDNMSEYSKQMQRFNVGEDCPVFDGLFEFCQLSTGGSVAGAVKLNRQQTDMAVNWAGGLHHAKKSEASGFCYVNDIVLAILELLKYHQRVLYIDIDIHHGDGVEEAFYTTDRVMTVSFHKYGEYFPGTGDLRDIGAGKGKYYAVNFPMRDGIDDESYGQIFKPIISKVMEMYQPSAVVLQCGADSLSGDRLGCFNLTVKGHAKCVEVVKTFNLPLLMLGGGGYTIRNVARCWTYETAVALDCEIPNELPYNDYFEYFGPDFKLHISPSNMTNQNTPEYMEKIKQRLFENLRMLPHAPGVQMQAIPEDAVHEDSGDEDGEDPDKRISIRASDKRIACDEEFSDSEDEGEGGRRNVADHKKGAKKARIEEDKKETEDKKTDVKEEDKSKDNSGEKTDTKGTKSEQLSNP

One experiment addresses Histone deacetylase 2 (Homo sapiens, UniProt Q92769). The experiment is described as follows: Inhibition of HDAC2 (unknown origin).
With `CC(=O)Nc1ccc2c(c1)CN(C(=O)[C@H](N)Cc1ccc(Cl)cc1Cl)C2`, the concentration for half-maximal inhibition (IC50) was over 30 µM.

The next experiment concerns the target T1, Protein deacetylase HDAC6 (Homo sapiens, UniProt Q9UBN7).
T1 sequence (Q9UBN7 whole entry): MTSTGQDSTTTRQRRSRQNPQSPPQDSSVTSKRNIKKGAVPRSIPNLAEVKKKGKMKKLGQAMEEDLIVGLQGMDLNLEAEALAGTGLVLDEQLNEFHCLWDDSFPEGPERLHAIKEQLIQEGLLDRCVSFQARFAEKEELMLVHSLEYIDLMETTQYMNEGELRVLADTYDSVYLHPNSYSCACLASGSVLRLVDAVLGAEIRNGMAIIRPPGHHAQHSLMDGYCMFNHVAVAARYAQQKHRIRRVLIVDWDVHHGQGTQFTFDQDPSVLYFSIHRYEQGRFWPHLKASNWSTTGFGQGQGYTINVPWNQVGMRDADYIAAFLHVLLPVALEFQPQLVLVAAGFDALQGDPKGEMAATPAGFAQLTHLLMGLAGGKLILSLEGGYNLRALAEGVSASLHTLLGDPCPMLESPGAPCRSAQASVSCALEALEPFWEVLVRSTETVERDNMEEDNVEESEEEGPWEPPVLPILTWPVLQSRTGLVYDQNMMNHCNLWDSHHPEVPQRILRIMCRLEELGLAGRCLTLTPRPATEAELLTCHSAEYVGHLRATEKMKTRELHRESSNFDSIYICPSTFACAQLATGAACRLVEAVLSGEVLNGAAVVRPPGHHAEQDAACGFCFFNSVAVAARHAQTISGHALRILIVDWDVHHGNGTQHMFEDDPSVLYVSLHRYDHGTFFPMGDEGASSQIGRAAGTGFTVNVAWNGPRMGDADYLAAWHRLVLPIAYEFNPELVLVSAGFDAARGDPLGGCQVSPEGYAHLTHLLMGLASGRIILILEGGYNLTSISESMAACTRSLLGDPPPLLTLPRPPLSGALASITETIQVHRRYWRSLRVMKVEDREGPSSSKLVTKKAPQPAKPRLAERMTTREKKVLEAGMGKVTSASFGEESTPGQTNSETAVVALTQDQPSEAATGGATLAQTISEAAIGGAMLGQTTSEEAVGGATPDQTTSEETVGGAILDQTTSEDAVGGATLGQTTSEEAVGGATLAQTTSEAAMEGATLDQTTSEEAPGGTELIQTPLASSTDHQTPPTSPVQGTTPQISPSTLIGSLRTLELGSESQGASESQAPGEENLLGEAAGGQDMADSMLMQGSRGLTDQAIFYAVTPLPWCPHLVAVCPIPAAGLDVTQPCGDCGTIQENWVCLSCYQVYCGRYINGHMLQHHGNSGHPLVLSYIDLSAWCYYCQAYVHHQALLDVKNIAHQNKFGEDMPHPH
The experiment is described as follows: Inhibition of HDAC6 (unknown origin).
In the case of `CC(=O)Nc1ccc2c(c1)CN(C(=O)[C@H](N)Cc1ccc(Cl)cc1Cl)C2`, the IC50 was over 30 µM.

In another experiment the target is Histone deacetylase 1 (Homo sapiens, UniProt Q13547). The experiment in a line: Inhibition of HDAC1 (unknown origin).
Histone deacetylase 1, sequence (Q13547 whole entry): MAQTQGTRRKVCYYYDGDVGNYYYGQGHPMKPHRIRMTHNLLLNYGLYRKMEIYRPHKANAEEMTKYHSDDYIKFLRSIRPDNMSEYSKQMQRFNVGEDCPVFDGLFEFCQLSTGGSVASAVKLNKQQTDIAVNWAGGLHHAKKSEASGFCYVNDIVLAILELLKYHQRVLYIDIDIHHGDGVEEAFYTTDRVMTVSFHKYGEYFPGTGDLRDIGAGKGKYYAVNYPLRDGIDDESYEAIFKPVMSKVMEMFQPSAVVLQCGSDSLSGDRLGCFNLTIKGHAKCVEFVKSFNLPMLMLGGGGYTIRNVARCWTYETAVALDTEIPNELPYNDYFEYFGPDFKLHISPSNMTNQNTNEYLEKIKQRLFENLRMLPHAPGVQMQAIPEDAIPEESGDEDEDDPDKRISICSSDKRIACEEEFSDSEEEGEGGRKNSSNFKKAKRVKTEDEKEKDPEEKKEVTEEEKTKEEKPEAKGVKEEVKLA
Turning to `CC(=O)Nc1ccc2c(c1)CN(C(=O)[C@H](N)Cc1ccc(Cl)cc1Cl)C2`, the IC50 was 8.8 µM. That is a single-digit micromolar value.

For another experiment, the target named is T2, Histone deacetylase 8 (Homo sapiens, UniProt Q9BY41).
T2 sequence (Q9BY41 whole entry): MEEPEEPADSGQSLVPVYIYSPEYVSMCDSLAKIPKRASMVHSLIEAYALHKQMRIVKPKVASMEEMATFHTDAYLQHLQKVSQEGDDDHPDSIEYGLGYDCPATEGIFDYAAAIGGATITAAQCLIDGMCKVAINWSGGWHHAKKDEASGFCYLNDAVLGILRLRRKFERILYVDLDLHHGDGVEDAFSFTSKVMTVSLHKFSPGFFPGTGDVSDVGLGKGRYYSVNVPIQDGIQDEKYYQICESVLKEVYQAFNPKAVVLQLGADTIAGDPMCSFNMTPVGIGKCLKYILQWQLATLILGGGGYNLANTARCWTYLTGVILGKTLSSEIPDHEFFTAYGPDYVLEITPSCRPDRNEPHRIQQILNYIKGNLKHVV
The experiment is described as follows: Inhibition of HDAC8 (unknown origin).
The compound `N[C@H](Cc1ccc(Cl)cc1Cl)C(=O)O` gave an IC50 of 410 µM.

Regarding `N[C@H](Cc1ccccc1)C(=O)N1Cc2ccccc2C1`, the IC50 is 1.15 µM. Take `N[C@H](Cc1ccc(Cl)cc1Cl)C(=O)NCCc1ccc(O)cc1`: the IC50 was determined as 1.25 µM. `C[C@H](NC(=O)[C@H](N)Cc1ccc(Cl)cc1Cl)c1ccccc1` showed a concentration for half-maximal inhibition (IC50) of 76.4 µM. `N[C@H](Cc1ccc(Cl)cc1Cl)C(=O)NCCc1ccccc1` registered an IC50 of 2.5 µM. Compared with the last compound, the IC50 is about 31-fold lower. On to `CNC(=O)[C@H](N)Cc1ccc(Cl)cc1Cl`, for which the 50% inhibitory concentration (IC50) worked out at 16.5 µM. Consider `N[C@H](Cc1ccc(Cl)cc1Cl)C(=O)NC1Cc2ccccc2C1`, for which the midpoint of inhibition, the IC50, lay at 8.76 µM. `N[C@H](Cc1ccc(Cl)cc1Cl)C(=O)NCCc1c[nH]c2ccccc12`: the concentration for half-maximal inhibition (IC50) is 0.97 µM. For the compound `CNC(=O)c1ccc2c(c1)CN(C(=O)[C@H](N)Cc1ccc(Cl)cc1Cl)C2`, 0.258 µM corresponded to half-maximal inhibition (IC50).

The compound `N[C@H](Cc1ccc(Cl)cc1Cl)C(=O)NCCc1cccnc1` yielded a concentration for half-maximal inhibition (IC50) of 3.85 µM. Against the preceding compound, the IC50 is about 15-fold higher.

`CN1CCN(C(=O)[C@H](N)Cc2ccccc2)CC1` registered a half-maximal inhibitory concentration (IC50) of 11 µM. `CC(=O)Nc1ccc2c(c1)CN(C(=O)[C@H](N)Cc1ccc(Cl)cc1Cl)C2` displayed an IC50 of 0.101 µM. Take `COc1ccc(NC(=O)[C@H](N)Cc2ccc(Cl)cc2Cl)cc1`: the concentration for half-maximal inhibition (IC50) came out at 2.67 µM. As for `N[C@H](Cc1ccc(Cl)cc1Cl)C(=O)NCCc1c[nH]c2ccc(O)cc12`, 1.77 µM corresponded to half-maximal inhibition (IC50). The compound `N[C@H](Cc1ccc(Cl)cc1Cl)C(=O)N1Cc2ccc(NC(=O)CCc3ccccc3)cc2C1` displayed a concentration for half-maximal inhibition (IC50) of 0.259 µM.

On to `Nc1ccc2c(c1)CN(C(=O)[C@H](N)Cc1ccc(Cl)cc1Cl)C2`, for which 0.13 µM corresponded to half-maximal inhibition (IC50). Take `CNCc1ccc2c(c1)CN(C(=O)[C@H](N)Cc1ccc(Cl)cc1Cl)C2`: it took 0.176 µM to reach half-maximal inhibition (IC50). Still for that read-out and setting: with `N[C@H](Cc1ccc(Cl)cc1Cl)C(=O)Nc1ccc2[nH]c3ccccc3c2c1` the figure was 10.5 µM. The same measure, in the same setting: with `N[C@H](Cc1ccc(O)cc1)C(=O)N1CCc2ccccc2C1` the figure was 21.3 µM; with `N[C@H](Cc1ccc(Cl)cc1Cl)C(=O)N1Cc2ccccc2C1`, 0.21 µM; with `N[C@H](Cc1ccc(Cl)cc1Cl)C(=O)N1Cc2ccc(NC(=O)Cc3ccccc3)cc2C1`, 0.232 µM. In turn, `N[C@H](Cc1ccc(Cl)cc1Cl)C(=O)NCc1ccccc1` registered an IC50 of 4.28 µM.

`N[C@H](Cc1ccccc1)C(=O)N1CCc2ccccc2C1`: the IC50 was determined as 10.7 µM.

Compound `COc1ccc(CNC(=O)[C@H](N)Cc2ccc(Cl)cc2Cl)cc1` returned a 50% inhibitory concentration (IC50) of 16.6 µM. In turn, `N[C@H](Cc1ccc(Cl)cc1Cl)C(=O)NCCc1ccc(O)c(O)c1` gave a half-maximal inhibitory concentration (IC50) of 2.07 µM.

`N[C@H](Cc1ccc(Cl)cc1Cl)C(=O)NCCCc1ccccc1` showed an IC50 of 2.01 µM.

In the case of `N[C@H](Cc1ccc(O)cc1)C(=O)N1Cc2ccccc2C1`, half-maximal inhibition (IC50) required 4.28 µM. Regarding `N[C@H](Cc1ccccc1)C(=O)N1CCN(c2ccccc2)CC1`, the IC50 was over 600 µM. In the case of `C[C@@H](NC(=O)[C@H](N)Cc1ccc(Cl)cc1Cl)c1ccccc1`, it took 25.3 µM to reach half-maximal inhibition (IC50). In other words, the double-digit micromolar range.

Regarding `N[C@H](Cc1ccc(Cl)cc1Cl)C(=O)NCc1cccs1`, 3 µM corresponded to half-maximal inhibition (IC50). This IC50 is about 8.4-fold lower than that of the compound before.

Consider `N[C@H](Cc1ccc(Cl)cc1Cl)C(=O)N1CCc2ccccc2C1`, for which 2.06 µM corresponded to half-maximal inhibition (IC50).

The values above are taken from ChEMBL document CHEMBL4616609, “Potent non-hydroxamate inhibitors of histone deacetylase-8: Role and scope of an isoindolin-2-yl linker with an α-amino amide as the zinc-binding unit” (Bioorg Med Chem Lett, 2020).
